Data taken from ChEMBL document CHEMBL1158220, “New prenylated quinones from Peperomia galioides” (J Nat Prod, 1996).
Calls of active or inactive are those of the source. No cut-off for these calls is given here.

How the values were obtained:
Format in all cases: functional, organism-based
[1] = tested on: Trypanosoma cruzi; experiment: Antiparasitic activity against Trypanosoma cruzi Y trypomastigotes assessed as lysis of parasite after 24 hrs
[2] = tested on: Leishmania braziliensis; experiment: Antiparasitic activity against Leishmania braziliensis at 25 ug/mL
[3] = tested on: Leishmania braziliensis; experiment: Antiparasitic activity against Leishmania braziliensis assessed as lysis of parasite at 100 ug/mL
[4] = tested on: Leishmania donovani; experiment: Antiparasitic activity against Leishmania donovani at 25 ug/mL
[5] = tested on: Leishmania donovani; experiment: Antiparasitic activity against Leishmania donovani assessed as lysis of parasite at 100 ug/mL
[6] = tested on: Leishmania amazonensis; experiment: Antiparasitic activity against Leishmania amazonensis at 25 ug/mL
[7] = tested on: Leishmania amazonensis; experiment: Antiparasitic activity against Leishmania amazonensis assessed as lysis of parasite at 100 ug/mL
[8] = tested on: Trypanosoma cruzi; experiment: Antiparasitic activity against Trypanosoma cruzi Y trypomastigotes assessed as lysis of parasite at 250 ug/mL after 24 hrs
[9] = tested on: Leishmania braziliensis; experiment: Antiparasitic activity against Leishmania braziliensis assessed as lysis of parasite at 5 ug/mL
[10] = tested on: Leishmania donovani; experiment: Antiparasitic activity against Leishmania donovani assessed as lysis of parasite at 5 ug/mL
[11] = tested on: Leishmania amazonensis; experiment: Antiparasitic activity against Leishmania amazonensis assessed as lysis of parasite at 5 ug/mL

Molecule | Activity [1] | Activity [3] | Activity [5] | Activity [7] | further results
CC(C)=CCC/C(C)=C/CC1=C(O)C(=O)C(C)(CC=C(C)C)CC1=O (stereo not given) | inactive | Active | Active | Active | Activity [2]: Active; Activity [4]: Active; Activity [6]: Active
CN(C)c1ccc(C(=C2C=CC(=[N+](C)C)C=C2)c2ccc(N(C)C)cc2)cc1 |  |  |  |  | Activity [8]: Active
MEGLUMINE ANTIMONATE |  | 40% | 40% | 40% | 
N=C(N)c1ccc(OCCCCCOc2ccc(C(=N)N)cc2)cc1 |  |  |  |  | Activity [9]: Active; Activity [10]: Active; Activity [11]: Active
CC(C)=CCCC1(C)C=CC2=C(O1)C(=O)C(C)=C(CC=C(C)C)C2=O (stereo not given) | inactive |  |  |  | 
